According to ChEMBL document CHEMBL3045943, “Novel N-aryl(alkaryl)-2-[(3-R-2-oxo-2H-[1,2,4]triazino[2,3-c]quinazoline-6-yl)thio]acetamides: synthesis, cytotoxicity, anticancer activity, COMPARE analysis and docking” (2013):

Assays:
Type in all cases: functional
[1] = tested on: PC-3; assay: Cytotoxicity against Homo sapiens (human) PC3 cells assessed as cell growth at 10 uM after 48 hr by SRB assay relative to control; conditions: PC-3, 48 h, read-out: Activity
[2] = tested on: SK-MEL-5; assay: Cytotoxicity against Homo sapiens (human) SK-MEL-5 cells after 48 hr by SRB assay; conditions: SK-MEL-5, 48 h
[3] = tested on: A549; assay: Cytotoxicity against Homo sapiens (human) A549 cells after 48 hr by SRB assay; conditions: A549, 48 h
[4] = tested on: UO-31; assay: Cytotoxicity against Homo sapiens (human) UO31 cells after 48 hr by SRB assay; conditions: UO-31, 48 h
[5] = tested on: HOP-92; assay: Cytotoxicity against Homo sapiens (human) HOP92 cells assessed as cell growth at 10 uM after 48 hr by SRB assay relative to control; conditions: HOP-92, 48 h, read-out: Activity
[6] = tested on: OVCAR-3; assay: Cytotoxicity against Homo sapiens (human) OVCAR3 cells after 48 hr by SRB assay; conditions: OVCAR-3, 48 h
[7] = tested on: OVCAR-4; assay: Cytotoxicity against Homo sapiens (human) OVCAR4 cells assessed as cell growth at 10 uM after 48 hr by SRB assay relative to control; conditions: OVCAR-4, 48 h, read-out: Activity
[8] = read-out: pLC50 (the source's name) (converted)

| SMILES | growth at 10 µM [1] | GI50 [2] | LC50 [2] | TGI ([2]; read-out: pTGI) | GI50 [3] | CC50 [3, 8] | TGI ([3]; read-out: pTGI) | GI50 [4] | LC50 [4] | TGI ([4]; read-out: pTGI) | growth at 10 µM [5] | GI50 [6] | CC50 [6, 8] | TGI ([6]; read-out: pTGI (converted)) | growth at 10 µM [7] |
| --- | --- | --- | --- | --- | --- | --- | --- | --- | --- | --- | --- | --- | --- | --- | --- |
| COc1ccccc1CNC(=O)CSc1nc2ccccc2c2nc(=O)c(-c3ccccc3)nn12 | 35.6% | 2.69 µM | > 100 µM | > 100 µM | 2.34 µM | > 100 µM | > 100 µM | 1.86 µM | > 100 µM | > 100 µM | 26.2% | – | – | – | – |
| COc1ccc(-c2nn3c(SCC(=O)Nc4ccccc4Cl)nc4ccccc4c3nc2=O)cc1 | – | – | – | – | – | – | – | – | – | – | – | 1.38 µM | > 100 µM | 3.31 µM | 45% |
